Test results taken from patent US20250032506A1, “GLUCOCORTICOID RECEPTOR BLOCKADE WITH MIFEPRISTONE TO SENSITIZE PANCREATIC CANCER TO IMMUNOTHERAPY” (BOARD OF REGENTS, THE UNIVERSITY OF TEXAS SYSTEM, priority 2021, published 2025).
Residues, ends and D or L forms follow the SMILES beside them. *: point of attachment. Cbz = O=C(OCc1ccccc1)*

Key:
[1] = tested on: SU86.86 cells; experiment: qPCR, immunoblotting and flow cytometry of PD-L1 and MHC-I pathway expression in SU86.86 cells; assay type: cell-based, human; details: immunoblotting, mifepristone 20 μM, 48 h with MG132 (10 μM, 6 h) or chloroquine (20 μM, 4 h)
Description: (See Bardeesy, N., et al. supra). The human PDAC cell lines SU86.86 ([…]), SW1990 ([…]), BXPC-3 ([…]), Miapaca-2 ([…]), Capan-1 ([…]), ASPC-1 ([…]), Hs766T ([…]), Colo357/FG ([…]), L3.6PL ([…]), Panc28 ([…]), Capan-2 ([…]), CF-Pac-1 ([…]), Panc3 (sex unknown), Panc1 ([…]), Panc48 (sex unknown), and HPAC ([…]) were from Mien-Chie Hung's lab stock. […] The BXPC-3, Miapaca-2, Capan-1, ASPC-1, Colo357/FG, L3.6PL, Panc28, Capan-2, CF-Pac-1, Panc3, Panc1, Panc48, and HPAC cell lines were cultured in DMEM/F-12 (Corning, 10-092-CV) supplemented with 10% FBS and 1% penicillin/streptomycin. Cells were grown in a humidified incubator with 5% CO2 at 37° C., and low-passage stocks were maintained in a centralized lab cell bank. Short tandem repeat profiling and mycoplasma tests were done by the Cytogenetics and Cell Authentication Core at MD Anderson Cancer Center.
Membranes were blocked with 10% non-fat milk in TBST and incubated with the primary antibody at 4° C. overnight, followed by incubation with the secondary antibody conjugated with horseradish peroxidase (HRP).

[2] = tested on: human PD-L1 gene promoter regions; experiment: Luciferase reporter assay in SW1990 cells; assay type: cell-based; details: IFNγ 10 ng ml^−1, 8 h, abrogated by knockdown of GR
Text: (§1) Human PD-L1 promoter-reporter constructs (Coelho, M. A., et al. Oncogenic RAS Signaling Promotes Tumo Immunoresistance by Stabilizing PD-L1 mRNA. Immunity 47, 1083-1099 e1086 (2017)) were purchased from Addgene (Addgene numbers: 107002, 107003, 107004, 107006, and 107007). The GR activity reporter plasmid was purchased from Qiagen (ID: C82DB0D7-3D10-4B1C-A358-411558D2DE01). The promoter regions of human HLA-B, HLA-C, and B2M were PCR-amplified from genomic DNA of the SU86.86 cell line (PCR primers are listed as SEQ ID NOs.: 1-6. The linearized pGL3-basic plasmid was amplified by PCR (Forward primer SEQ ID NO: 7; reverse primer SEQ ID NO: 8), and PCR products of promoter regions were ligated to linearized pGL3-basic using the In-Fusion HD Cloning Kit (Takara Bio, 638909).
(§2) The firefly luciferase reporter containing the human gene promoter was co-transfected with a Renilla luciferase vector (for normalization) into SU86.86 cells using jetPRIME transfection reagent (VWR, 89129-922). […] Firefly and Renilla luciferase activities were measured using a Dual-Luciferase Reporter Assay (Promega, E1910) on a microplate reader according to the manufacturer's protocol. Firefly luciferase activity was normalized to Renilla luciferase activity.

[3] = tested on: human PD-L1, HLA-B, HLA-C, and B2M gene promoter regions; experiment: Luciferase reporter assay in SU86.86 cells; assay type: cell-based; details: IFNγ 10 ng ml^−1, 8 h, abrogated by knockdown of GR
Text: as §1, §2

Row | Molecule | effect on mifepristone-mediated PD-L1 downregulation and MHC-I upregulation [1] | activity of the PD-L1 promoter reporters [2] | activity of the PD-L1 promoter reporters [3]
1 | CCN(CC)CCCC(C)Nc1ccnc2cc(Cl)ccc12 (stereo not shown) [chloroquine] | did not affect | – | –
2 | CC(C)C[C@@H](C=O)NC(=O)[C@H](CC(C)C)NC(=O)[C@H](CC(C)C)NC(=O)OCc1ccccc1 [MG132] (Cbz-Leu-Leu-Leu-aldehyde) | did not affect | – | –
3 | IFNγ: IFNγ (known to activate PD-L1 transcription) (protein, UniProt P01579 24-161, looked up) Interferon gamma: QDPYVKEAENLKKYFNAGHSDVADNGTLFLGILKNWKEESDRKIMQSQIVSFYFKLFKNFKDDQSIQKSVETIKEDMNVKFFNSNKKKRDDFEKLTNYSVTDLNVQRKAIHELIQVMAELSPAAKTGKRKRSQMLFRG | – | induced | induced
